For data set [1], the system named is Streptococcus pneumoniae. The following applies: Streptococcus pneumoniae ATCC 10015; reference antibiotic according to WHONET; cited from earlier work.
The subject of data set [2] is Acinetobacter guillouiae. The note with it: Acinetobacter guillouiae ATCC 11171; reference antibiotic according to WHONET; in µg/mL; cited from earlier work.
Data set [3] concerns Shigella boydii. More on the design: unit not given beside the values. The following applies: Shigella boydii ATCC 12027; reference antibiotic according to WHONET; cited from earlier work.
For data set [4], the system named is Shigella flexneri. More on the design: unit not given beside the values. The following applies: Shigella flexneri ATCC 11836; reference antibiotic according to WHONET; cited from earlier work.
Data set [5] concerns Enterococcus faecalis. The following applies: Enterococcus faecalis ATCC 29212; reference antibiotic according to WHONET; in µg/mL; cited from earlier work.
The subject of data set [6] is Staphylococcus Aureus. The note with it: Staphylococcus Aureus ATCC 29737; reference antibiotic according to WHONET; in µg/mL; cited from earlier work.
Data set [7] deals with Mycobacterium smegmatis. The data set is described as follows: Determination of the Minimum Inhibitory Concentration, M. smegmatis. The data set is classed as cell-based. The following applies: Mycolicibacterium smegmatis, ATCC607; M. smegmatis (ATCC 607), 72 h incubation, 1×10^5 CFU/ml inoculum. How it is done: (§1) The Minimum Inhibitory Concentration (MIC), which is defined as the lowest antimicrobial agent concentration inhibiting the visible growth of a microorganism following its incubation, was subsequently determined.
(§2) For the purpose of such determination, the compounds under study were tested on the strains listed in Table 3 with the antibiotics (AB) stated as reference in the table.
(§3) The test was conducted on a plate on the basis of a 1×10^5 CFU/ml inoculum concentration, with negative, positive and sterility controls being simultaneously performed. Different concentrations of the compounds under study were tested, as shown on the last column included in Table 3 (working solution).
(§4) Following incubation at 32.5±2.5° C. for a 24 h period (48 h in the case of C. sporogenes and 72 h in the case of M. smegmatis), the plates were visually read. The appearance of turbidity and/or the formation of a growth point at the microtube bottom were held as a positive result.

Data set [8] deals with Clostridium sporogenes. The experiment in a line: Determination of the Minimum Inhibitory Concentration, C. sporogenes. The data set is classed as cell-based. The following applies: ATCC19404, C. sporogenes (ATCC 19404), 48 h incubation, 1×10^5 CFU/ml inoculum. The protocol:
as §1, §2, §3, §4

The subject of data set [9] is Streptococcus pneumoniae. The experiment in a line: Determination of the Minimum Inhibitory Concentration, S. pneumoniae. The data set is classed as cell-based. The following applies: ATCC10015, S. pneumoniae (ATCC 10015), 24 h incubation, 1×10^5 CFU/ml inoculum. How it is done:
as §1, §2, §3, §4

The test system of data set [10] is Shigella flexneri. The data set is described as follows: Determination of the Minimum Inhibitory Concentration, S. flexneri. It counts as cell-based. The following applies: ATCC11836, S. flexneri (ATCC 11836), 24 h incubation, 1×10^5 CFU/ml inoculum. How it is done:
as §1, §2, §3, §4

For data set [11], the system named is Shigella boydii. The data set is described as follows: Determination of the Minimum Inhibitory Concentration, S. boydii. The note with it: ATCC12027, S. boydii (ATCC 12027), 24 h incubation, 1×10^5 CFU/ml inoculum. It counts as cell-based. The protocol:
as §1, §2, §3, §4

Values after ≈ are worked out from the molar mass of the structure shown.

As to `CC1(C)S[C@@H]2[C@H](NC(=O)[C@H](N)c3ccccc3)C(=O)N2[C@H]1C(=O)O` [Ampicillin (sodium), Ampicillin], the “MIC (for WHO antibiotics)” value in data set [1] is “≦0.5”.
In the case of `COc1ccc(C=CC(=O)N2CCN(C(=O)C=Cc3ccc(OC)c(C(F)F)c3)CC2)cc1C(F)F` [Example 6, N,N′-bis[3-(difluoromethyl)-4-methoxy-cinnamoyl]piperazine], the melting point (commonly the temperature of the solid-liquid transition) lay in the range of 259 to 261 °C.
The same measure, in the same setting: with `COc1ccc(C=CC(=O)N2CCOCC2)cc1C(F)F` [Example 12, N-[3-(difluoromethyl)-4-methoxy-cinnamoyl]morpholine] the figure was 119 °C.
In the case of `CN(C)c1ccc(O)c2c1C[C@H]1C[C@H]3[C@H](N(C)C)C(O)=C(C(N)=O)C(=O)[C@@]3(O)C(O)=C1C2=O` [Minocyclin], the “MIC (for WHO antibiotics)” value in [2] is recorded as 0.06-8.0.
Take `C[C@@H]1O[C@@H]1P(=O)(O)O` [Phosphomycin]: the “MIC (for WHO antibiotics)” value in data set [3] and in data set [4] was “≦4.0” throughout.
Regarding `CN[C@H](CC(C)C)C(=O)N[C@H]1C(=O)N[C@@H](CC(N)=O)C(=O)N[C@H]2C(=O)N[C@H]3C(=O)N[C@H](C(=O)N[C@H](C(=O)O)c4cc(O)cc(O)c4-c4cc3ccc4O)[C@H](O)c3ccc(c(Cl)c3)Oc3cc2cc(c3O[C@@H]2O[C@H](CO)[C@@H](O)[C@H](O)[C@H]2O[C@H]2C[C@](C)(N)[C@H](O)[C@H](C)O2)Oc2ccc(cc2Cl)[C@H]1O` [Vancomycin], the “MIC (for WHO antibiotics)” value in data set [5] is recorded as 1.0-4.0; in data set [6], 0.5-2.0.
As to `COc1ccc(/C=C/C(=O)Nc2ccccc2)cc1C(F)F` [compound 1], it took 64 µg/mL (≈ 211 µM) to inhibit growth in [7] (MIC).
On the same count and under the same terms, with `COc1ccc(/C=C/C(=O)NC(C)C)cc1C(F)F` [compound 2] the figure was 8 µg/mL (≈ 29.7 µM).
For `COc1ccc(/C=C/C(=O)NNC(=O)c2ccncc2)cc1C(F)F` [compound 4], the minimum inhibitory concentration (MIC) in data set [8] and in data set [7] was 64 µg/mL (≈ 184 µM) in each case.
Consider `COc1ccc(/C=C/C(=O)NCC(C)C)cc1C(F)F` [compound 5], for which 32 µg/mL (≈ 113 µM) was the least that counted as inhibitory in [7] (MIC).
`COc1ccc(/C=C/C(=O)NCCC(C)C)cc1C(F)F` [compound 6]: the minimum inhibitory concentration (MIC) (in general, the least concentration at which growth counts as inhibited) in data set [7] was determined as 8 µg/mL (≈ 26.9 µM); in data set [9], 64 µg/mL (≈ 215 µM).
The compound `COc1ccc(/C=C/C(=O)NCCCNC(=O)/C=C/c2ccc(OC)c(C(F)F)c2)cc1C(F)F` [compound 7] yielded an MIC in data set [9] of 64 µg/mL (≈ 129 µM).
`COc1ccc(/C=C/C(=O)NC(C)C)cc1` [compound 8]: the MIC in data set [7] turned out to be 32 µg/mL (≈ 146 µM).
Consider `COc1ccc(/C=C/C(=O)NC(C)C)cc1C` [compound 9], for which it took 32 µg/mL (≈ 137 µM) to inhibit growth in data set [7] (MIC).
Regarding `COc1ccc(/C=C/C(=O)NC(C)C)cc1O` [compound 10], the minimum inhibitory concentration (MIC) in data set [10] and in data set [11] was 32 µg/mL (≈ 136 µM) throughout.
`CC(=O)Oc1ccc(/C=C/C(=O)NC(C)C)cc1C(F)F` [entry 3]: the MIC in data set [7] turned out to be 64 µg/mL (≈ 215 µM).
